Measured values reported in patent US5466716A, “Liposomal trimethylsphingosine” (The Biomembrane Institute, priority 1994, dated 1995).

What was measured:
MKN-74 cells = experiment: comparative effect of reagents on MKN-74 tumor cell growth/differentiation; type: cell-based, human; details: MKN-74, FIG. 3, compared with DMS, SPN, cAMP derivatives, HMBA
Source text: FIG. 3 depicts the comparative effect of various reagents on tumor cell differentiation. MKN-74 cells were exposed to N,N,N-trimethylsphingosine (open squares), N,N-dimethylsphingosine (open circles), 8-chloro-cyclic AMP (open triangles), dibutyryl cyclic AMP (solid triangles), sphingosine (solid circles) and hexamethylenebisacetamide (solid squares).
An in vitro assay relying on tritiated thymidine incorporation can be used to ascertain the effect of various compounds on cell proliferation. Briefly, tumor cells are seeded in flat bottom 96 well plates (Corning, N.Y.) at a concentration of 2×10^4 cells per well. The cells are cultured for 2 days in DMEM containing various concentrations of sphingoid, which is added as a PBS solution. The medium then is supplemented with tritiated thymidine at a concentration of 0.5 μCi per well. Following a six hour incubation the cells are collected using the PHD Cell Harvester (Cambridge Technology, Cambridge, Mass.) and amounts of incorporated radioactivity are determined after adding a suitable cell lysing agent and scintillation cocktail, such as ScintiVerse BD (Fisher Scientific, Fairlawn, Calif.) which performs both functions.
MKN-74 cells were exposed to cAMP and derivatives thereof and to HMBA, which are known to inhibit tumor cell growth by differentiation induction.

neutrophils = experiment: neutrophil superoxide production (cytochrome C reduction); type: cell-based, human
Method: FIGS. 13A and 13B depict the effect of various reagents on neutrophil function. In FIG. 13A, the effect of TMS on O2 production was determined by monitoring the superoxide-mediated reduction of cytochrome C (Clifford, Meth. Enz., 105, 393, 1981) by 10^6 neutrophils/ml at OD550 and an extinction coefficient of 21000/M/cm in a Beckman DU-50 spectrophotometer. The cells were preincubated for 10 minutes at room temperature with the noted concentrations of TMS prior to stimulation with 1 μM PMA (time 0).
Human neutrophils were obtained from normal male adults. Heparinized peripheral blood was mixed gently with an equal amount of 1% dextran solution in PBS in a 60 ml injection syringe. The mixture was allowed to sit vertically for 60 to 90 minutes at 37° C. The upper phase, which is rich in white blood cells, was mounted gently on the same volume of Ficoll-Paque (Pharmacia LKB, Uppsala, Sweden) in Falcon 2095 plastic test tubes (Becton Dickinson Labware, Lincoln Park, N.J.). Centrifugation at 450 g for 30 min at 4° C. brought the neutrophils to the bottom of the tubes. The upper phase and interface, which contains lymphocytes, were removed carefully by aspiration.
Superoxide production by neutrophils was quantitated by monitoring superoxide-mediated reduction of cytochrome C (Clifford, supra, in which the reduction is manifest as an increase in absorbance at 550 nm at an extinction coefficient of 21000/M/cm). Measurements were carried out with a Beckman DU-50 spectrophotometer at 37° C. using ≈1×10^6 neutrophils per ml. The cells were allowed to equilibrate for 10 min with TMS, or other effectors, prior to addition of 1 μM of PMA.

In the case of `CCCCCCCCCCCCC/C=C/[C@@H](O)[C@H](CO)[N+](C)(C)C` [TMS, N,N,N-trimethylsphingosine], the “inhibition of tumor cell growth” value (MKN-74 cells) is reported as “most effective inhibitor of tumor cell growth”, the “inhibition of oxyradical production” value (neutrophils; 15 μM, FIG. 13B) is reported as “inhibited immediately” and the “inhibition of superoxide production” value (neutrophils; 20 μM) is reported as “completely abolishes superoxide production”. For the same molecule, the neutrophil superoxide production (neutrophils; Example 5) was “profound effect” and the “inhibition of superoxide production” value (neutrophils; dose-dependence, FIGS. 13A and 13B) was “inhibited by TMS in a dose-dependent manner”.
